From patent US20110287953A1, “METHOD FOR DISCOVERING POTENTIAL DRUGS” (priority 2010, published 2011)
Where two headings read alike, the source gives them in different places. Values belong to the compound of their own block, whether it stands above or below them.

Assays:
[1] = system: HCC cell lines, Mahlavu, PLC5, HepG2, and Huh7; assay: MTT cell viability test in HCC cell lines
Description: (§1) The HCC cell lines, Mahlavu, PLC5, HepG2, and Huh7, were cultured in Dulbecco's Modified Eagle Medium (DMEM; Seromed, Berlin, Germany) supplemented with 10% heat-inactivated fetal bovine serum, 100 μg/ml streptomycin, 100 μg/ml penicillin, and 2 mM L-glutamine in a humidified atmosphere containing 5% CO2 at 37° C. […] The cells were exposed to different concentrations of the small molecules for 72 hours. Control cells were incubated in the absence of small molecules. Afterwards, the cells were incubated with medium containing MTT for 2 hours. […] For the clonogenic assay, Huh7 cells were seeded out in appropriate dilutions in a 6-well plate and treated with selected small molecules at various concentrations for 15 days. Colonies were fixed with glutaraldehyde (6.0% v/v), stained with crystal violet (0.5% w/v), and counted.

Huh7 cells = assay: Clonogenic assay; assay type: cell-based; settings: for Clonogenic assay / inhibition at 10 µM: colony number at 10 μM; for inhibition at 10 µM: Homo sapiens, Huh-7, 360 h
Description: The HCC cell lines, Mahlavu, PLC5, HepG2, and Huh7, were cultured in Dulbecco's Modified Eagle Medium (DMEM; Seromed, Berlin, Germany) supplemented with 10% heat-inactivated fetal bovine serum, 100 μg/ml streptomycin, 100 μg/ml penicillin, and 2 mM L-glutamine in a humidified atmosphere containing 5% CO2 at 37° C. The viability of the exposed cells was determined using the MTT cell viability assay kit (Sigma-Aldrich, St. Louis, USA), according to the manufacturer's instructions. […] The cells were exposed to different concentrations of the small molecules for 72 hours. Control cells were incubated in the absence of small molecules. Afterwards, the cells were incubated with medium containing MTT for 2 hours. The optical density at 450 nm was measured using a microplate reader (Spectral Max250). For the clonogenic assay, Huh7 cells were seeded out in appropriate dilutions in a 6-well plate and treated with selected small molecules at various concentrations for 15 days. Colonies were fixed with glutaraldehyde (6.0% v/v), stained with crystal violet (0.5% w/v), and counted.

HCC cell lines = assay: Drug efficacy label of top 10 CMap drugs (MTT or clonogenic); assay type: cell-based; settings: Table 2-3; labels (1) and (4); gene set in which the drug ranked top 10;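 further: label 1 means effective by MTT or clonogenic assay and 4 means ineffective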
Description: as §1

[2] = 72 h, Table 3-1, HCC cell lines, MTT
[3] = Table 3-1, HCC cell lines, 72 hours, MTT
[4] = 72 h, Table 2-2, HCC cell lines, MTT

Compound: COc1cnc(NS(=O)(=O)c2ccc(N)cc2)nc1 [sulfametoxydiazine]
IC50 [1, 2]: > 10 µM

IC50 [1, 2]: > 10 µM
Compound: CC[C@H](c1ccc(O)cc1)[C@@H](CC)c1ccc(O)cc1 [hexestrol]
Clonogenic assay (Huh7 cells; Table 3-1, 15 days): Ineffective
drug efficacy label (HCC cell lines): hexestrol (4)

IC50 [1, 2]: 5 to 10 µM
Compound: Cc1cc(C2CCCCC2)n(O)c(=O)c1 [ciclopirox]

IC50 [1, 3]: 5 to 10 µM
Compound: O=C1Nc2ccc3ncsc3c2/C1=C/Nc1ccc(S(=O)(=O)Nc2ccccn2)cc1 [GW-8510]

IC50 [1, 2]: > 10 µM
Compound: COc1c2ccoc2nc2c(OC)c(OCC(O)C(C)(C)O)ccc12 (centres unmarked) [evoxine]
Clonogenic assay (Huh7 cells; Table 3-1, 15 days): Ineffective

Compound: Cc1ccsc1/C=C/C1=NCCCN1C [morantel]
IC50 ([1]; 72 h): > 10 µM

IC50 [1, 2]: > 10 µM
Compound: COc1ccc([C@@H]2Sc3ccccc3N(CCN(C)C)C(=O)[C@@H]2OC(C)=O)cc1 [diltiazem]

IC50 [1, 2]: 0.1 to 1 µM
Compound: CCCCC(CC)CNC(=N)NC(=N)NCCCCCCNC(=N)NC(=N)NCC(CC)CCCC (centres unmarked) [alexidine]

IC50 [1, 2]: > 10 µM
Compound: C[C@]12CC[C@@H]3c4ccc(O)cc4CC[C@H]3[C@@H]1C[C@@H](O)[C@@H]2O [estriol]

IC50 [1, 4]: > 10 µM
IC50 [1, 2]: > 10 µM
Compound: Nc1nc2nn[nH]c2c(=O)[nH]1 [8-azaguanine]
Clonogenic assay (Huh7 cells; Table 2-2, 15 days): Ineffective
Clonogenic assay (Huh7 cells; Table 3-1, 15 days): Ineffective
drug efficacy label (HCC cell lines): 8-azaguanine (4)

IC50 [1, 2]: 1 to 5 µM
Compound: OC(c1cc(C(F)(F)F)nc2c(C(F)(F)F)cccc12)C1CCCCN1 (centres unmarked) [mefloquine]

Compound: COc1cc(/C=C/C(=O)N2CCC=CC2=O)cc(OC)c1OC [piperlongumine]
IC50 [1]: 1 to 5 µM

IC50 [1, 3]: 5 to 10 µM
Compound: tyloxapol

IC50 [1, 2]: > 10 µM
Compound: O=c1cc(-c2ccccc2)oc2cc(O)cc(O)c12 [chrysin]

Compound: CC[C@H]1CN2CCc3cc(OC)c(OC)cc3[C@@H]2C[C@@H]1C[C@H]1NCCc2cc(OC)c(OC)cc21 [emetine]
IC50 [1, 2]: 0.1 to 1 µM

IC50 [1, 2]: > 10 µM
Compound: Cc1cc2cc3c(C)cc(=O)oc3c(C)c2o1 [trioxysalen]
inhibition at 10 µM (Huh7 cells; Table 3-1, 15 days): > 50%

IC50 [1, 2]: > 10 µM
Compound: C#CCN(C)Cc1ccccc1 [pargyline]

Compound: C=C(NC(=O)C(=C)NC(=O)c1csc(C2=N[C@@H]3c4csc(n4)[C@H]4NC(=O)c5csc(n5)[C@H]([C@](C)(O)[C@@H](C)O)NC(=O)[C@H]5CSC(=N5)/C(=C/C)NC(=O)[C@H]([C@@H](C)O)NC(=O)c5csc(n5)[C@]3(CC2)NC(=O)[C@H](C)NC(=O)C(=C)NC(=O)[C@H](C)NC(=O)[C@H]([C@@H](C)CC)N[C@@H]2C=Cc3c([C@H](C)O)cc(nc3[C@H]2O)C(=O)O[C@@H]4C)n1)C(N)=O [thiostrepton]
IC50 [1, 2]: 1 to 5 µM

IC50 [1, 2]: 5 to 10 µM
Compound: CC(C)COCC(CN(Cc1ccccc1)c1ccccc1)N1CCCC1 (centres unmarked) [bepridil]

IC50 [1, 3]: > 10 µM
Compound: CC1=CC(=O)C2=C(C)CC[C@@H]3[C@H](OC(=O)[C@H]3C)[C@@H]12 [leucomisine]
Clonogenic assay (Huh7 cells; Table 3-1, 15 days): Ineffective

IC50 [1, 2]: > 10 µM
Compound: CCN(CC)CCOC(=O)c1ccc(N)cc1 [procaine]

Compound: Oc1ccc(C=Cc2cc(O)cc(O)c2)cc1 [resveratrol]
drug efficacy label (HCC cell lines): resveratrol (4)

IC50 [1, 2]: 5 to 10 µM
Compound: Oc1c(I)cc(Cl)c2cccnc12 [clioquinol]

IC50 [1, 2]: > 10 µM
Compound: O=C(O)c1ccccc1C(=O)Nc1ccc(S(=O)(=O)Nc2nccs2)cc1 [phthalylsulfathiazole]
Clonogenic assay (Huh7 cells; Table 3-1, 15 days): Ineffective

IC50 [1, 4]: > 10 µM
Compound: CC(=O)[C@H]1CC[C@H]2[C@@H]3C[C@H](C)C4=CC(=O)CC[C@]4(C)[C@H]3[C@@H](O)C[C@]12C [Medrysone]
Clonogenic assay (Huh7 cells; Table 2-2, 15 days): Ineffective
drug efficacy label (HCC cell lines): medrysone (4)

Compound: CC(COc1ccccc1)N(CCCl)Cc1ccccc1 (centres unmarked) [phenoxybenzamine]
IC50 ([1]; 72 h): > 10 µM
IC50 [1, 3]: > 10 µM
growth / survival of Huh7 cells (Huh7 cells): could inhibit the survival of Huh7 cells
inhibition at 10 µM (Huh7 cells; Table 3-1, 15 days): > 50%
Clonogenic assay (Huh7 cells; Table 2-2, 15 days): Effective (Effectiveness in clonogenic assay is defined as reducing more than 50% colony number at 10 μM)
drug efficacy label (HCC cell lines): (1) and phenoxybenzamine (1)

Compound: C=CCNC1=C2C[C@@H](C)C[C@H](OC)[C@H](O)[C@@H](C)/C=C(\C)[C@H](OC(N)=O)[C@@H](OC)/C=C\C=C(/C)C(=O)NC(=CC1=O)C2=O [tanespimycin]
cell viability / cytotoxicity in HCC cell lines ([1]; 0.1, 1 and 10 μM, 72 hours, MTT): exhibited cytotoxicity effect
IC50 [1, 4]: < 0.1 µM
IC50 [1, 2]: < 0.1 µM
IC50 ([1]; 72 h, HCC cell lines): < 10 µM
drug efficacy label (HCC cell lines): tanespimycin (1)

Compound: CSc1ccc2c(c1)N(CCC1CCCCN1C)c1ccccc1S2 (centres unmarked) [thioridazine]
drug efficacy label (HCC cell lines): thioridazine (1)

Compound: Cc1c2ccncc2c(C)c2c1[nH]c1ccccc12 [ellipticine]
IC50 [1, 2]: 0.1 to 1 µM

IC50 [1, 2]: > 10 µM
Compound: CCCNCC(O)COc1ccccc1C(=O)CCc1ccccc1 (centres unmarked) [propafenone]
inhibition at 10 µM (Huh7 cells; Table 3-1, 15 days): > 50%

IC50 [1, 2]: > 10 µM
Compound: N[C@@H]1CON=C1O [cycloserine]
Clonogenic assay (Huh7 cells; Table 3-1, 15 days): Ineffective

IC50 [1, 2]: > 10 µM
Compound: CC[C@H]1OC(=O)[C@H](C)[C@@H](O[C@H]2C[C@@](C)(OC)[C@@H](O)[C@H](C)O2)[C@H](C)[C@@H](O[C@@H]2O[C@H](C)C[C@H](N(C)C)[C@H]2O)[C@](C)(O)C[C@@H](C)/C(=N\OCOCCOC)[C@H](C)[C@@H](O)[C@]1(C)O [roxithromycin]

IC50 [1, 4]: > 10 µM
IC50 [1, 2]: 5 to 10 µM
Compound: CN(C)CCCN1c2ccccc2Sc2ccc(Cl)cc21 [chlorpromazine]
inhibition at 10 µM (Huh7 cells; Table 3-1, 15 days): > 50%
Clonogenic assay (Huh7 cells; Table 2-2, 15 days): Effective (Effectiveness in clonogenic assay is defined as reducing more than 50% colony number at 10 μM)
drug efficacy label (HCC cell lines): chlorpromazine (1)

IC50 [1, 4]: > 10 µM
Compound: C[C@]12CC[C@@H]3c4ccc(O)cc4CC[C@H]3[C@@H]1CC[C@H]2O [Alpha-estradiol]
Clonogenic assay (Huh7 cells; Table 2-2, 15 days): Ineffective
drug efficacy label (HCC cell lines): Alpha-estradiol (4)

Compound: CC[C@@]1(O)C(=O)OCc2c1cc1n(c2=O)Cc2cc3ccccc3nc2-1 [camptothecin]
IC50 [1, 2]: 0.1 to 1 µM

IC50 [1, 2]: > 10 µM
Compound: Cc1cc2c(cc1S(N)(=O)=O)S(=O)(=O)CCC2 [meticrane]
Clonogenic assay (Huh7 cells; Table 3-1, 15 days): Ineffective

IC50 [1, 2]: > 10 µM
Compound: CC(C(=O)O)c1cccc(Oc2ccccc2)c1 (centres unmarked) [fenoprofen]

IC50 [1, 2]: > 10 µM
Compound: Nc1ncn([C@@H]2O[C@H](CO)[C@@H](O)[C@H]2O)c(=O)n1 [azacitidine]
inhibition at 10 µM (Huh7 cells; Table 3-1, 15 days): > 50%

IC50 [1, 3]: > 10 µM
Compound: COc1ccccc1N1CCN(CCCCNC(=O)c2ccc3ccccc3c2)CC1.Cl.Cl [DO 897/99]
Clonogenic assay (Huh7 cells; Table 3-1, 15 days): Effective (Effectiveness in clonogenic assay is defined as reducing more than 50% colony number at 10 μM)

Compound: C=C(C)[C@H]1Cc2c(ccc3c2O[C@@H]2COc4cc(OC)c(OC)cc4[C@@H]2C3=O)O1 [rotenone]
IC50 [1, 2]: 0.1 to 1 µM

IC50 [1, 4]: > 10 µM
IC50 [1, 2]: > 10 µM
Compound: O=c1cc(-c2ccc(O)cc2)oc2cc(O)cc(O)c12 [apigenin]
growth / survival of Huh7 cells (Huh7 cells): inhibited the growth of Huh7 cells
inhibition at 10 µM (Huh7 cells; Table 3-1, 15 days): > 50%
Clonogenic assay (Huh7 cells; Table 2-2, 15 days): Effective (Effectiveness in clonogenic assay is defined as reducing more than 50% colony number at 10 μM)
drug efficacy label (HCC cell lines): apigenin (1)

IC50 [1, 2]: > 10 µM
Compound: C#C[C@]1(O)CC[C@H]2[C@@H]3CCC4=CC(=O)CC[C@@H]4[C@H]3CC[C@@]21CC [levonorgestrel]

Compound: O=C1c2c(O)ccc(O)c2C(=O)c2c(NCCNCCO)ccc(NCCNCCO)c21 [mitoxantrone]
IC50 [1, 2]: 0.1 to 1 µM

IC50 [1, 3]: 0.1 to 1 µM
Compound: CC1=C(CO)C(=O)O[C@@H]([C@@H](C)[C@H]2CC[C@H]3[C@@H]4C[C@H]5O[C@]56[C@@H](O)C=CC(=O)[C@]6(C)[C@H]4CC[C@]23C)C1 [withaferin A]

Compound: C[n+]1cc2c3c(ccc2c2ccc4cc5c(cc4c21)OCO5)OCO3 [sanguinarine]
IC50 ([1]; 72 h): 0.1 to 1 µM

IC50 [1, 2]: > 10 µM
Compound: CN(C)C/C=C(/c1ccc(Br)cc1)c1cccnc1 [zimeldine]
Clonogenic assay (Huh7 cells; Table 3-1, 15 days): Ineffective

IC50 [1, 2]: > 10 µM
Compound: CC1CC(OC(=O)C(O)c2ccccc2)CC(C)(C)N1C (centres unmarked) [eucatropine]

IC50 [1, 2]: > 10 µM
Compound: COc1ccc2c(OC)c3ccoc3nc2c1OC [skimmianine]
inhibition at 10 µM (Huh7 cells; Table 3-1, 15 days): > 50%

IC50 [1, 4]: > 10 µM
IC50 [1, 2]: > 10 µM
Compound: OCCN(CCO)c1nc(N2CCCCC2)c2nc(N(CCO)CCO)nc(N3CCCCC3)c2n1 [dipyridamole]
inhibition at 10 µM (Huh7 cells; Table 3-1, 15 days): > 50%
Clonogenic assay (Huh7 cells; Table 2-2, 15 days): Effective (Effectiveness in clonogenic assay is defined as reducing more than 50% colony number at 10 μM)

IC50 [1, 2]: > 10 µM
Compound: Cc1ccc(S(=O)(=O)NC(=O)NN2CC3CCCC3C2)cc1 (centres unmarked) [gliclazide]
Clonogenic assay (Huh7 cells; Table 3-1, 15 days): Ineffective

IC50 [1, 4]: > 10 µM
IC50 [1, 2]: > 10 µM
Compound: CC(=O)Oc1cc(C(F)(F)F)ccc1C(=O)O [triflusal]
Clonogenic assay (Huh7 cells; Table 2-2, 15 days): Ineffective
Clonogenic assay (Huh7 cells; Table 3-1, 15 days): Ineffective

IC50 [1, 3]: > 10 µM
Compound: C[C@@H]1C(=O)O[C@H]2C[C@@]34[C@H]5C[C@@H](C(C)(C)C)[C@]36[C@@H](OC(=O)[C@@H]6O)O[C@@]4(C(=O)O5)[C@]21O [ginkgolide A]

Compound: O=C(CCCN1CCC2(CC1)C(=O)NCN2c1ccccc1)c1ccc(F)cc1 [spiperone]
inhibition at 10 µM (Huh7 cells; Table 3-1, 15 days): > 50%

Compound: O=C(O)CNC(=O)C(CS)Cc1ccccc1 (racemic) [DL-thiorphan]
IC50 [1, 3]: > 10 µM
Clonogenic assay (Huh7 cells; Table 3-1, 15 days): Ineffective

Compound: Clc1ccc(CSC(Cn2ccnc2)c2ccc(Cl)cc2Cl)cc1 (centres unmarked) [sulconazole]
inhibition at 10 µM (Huh7 cells; Table 3-1, 15 days): > 50%
Clonogenic assay (Huh7 cells; Table 2-2, 15 days): Effective (Effectiveness in clonogenic assay is defined as reducing more than 50% colony number at 10 μM)

IC50 [1, 2]: > 10 µM
Compound: Cn1c([N+](=O)[O-])cnc1COC(N)=O [ronidazole]
